Data reported in US11426473B2, “Nitrogen-containing compound or salt thereof, or metal complex thereof” (FUJIFILM Corporation, priority 2013, dated 2022).

What was measured:
[1] = target: T1, Integrin αvβ3 (Homo sapiens, UniProt P05106+P06756); test: Integrin αvβ3 binding affinity test; conditions: inhibition of biotinylated vitronectin binding to immobilized αvβ3; read-out: IC50 value αv β3
T1 construct: purchased Chemicon International, Inc
Experimental: (§1) […] αvβ3 (Chemicon International, Inc.) was immobilized on each well of a 96-well plate (Corning Inc.). Each well was blocked with a 1% Block Ace (DS Pharma Biomedical Co., Ltd) solution and then washed with T-PBS (PBS containing 0.05% Tween 20). Evaluation compound solutions having a 2-fold concentration (10 concentrations of 3.16-fold dilutions from 0.3 μmol/L, buffer (20 mM Tris-HCl pH 7.5, 150 mM NaCl, 1 mM CaCl2, 1 mM MgCl2, and 1 mM MnCl2)) and a 4 μg/mL biotinylated vitronectin solution (vitronectin (Upstate Biotechnology Inc.) was labeled with EZ-Link Sulfo-NHS-Biotinylation Kit (Pierce/Thermo Fisher Scientific Inc.) and then concentration-adjusted) were each added at 50 μL/well, and the plate was shaken at room temperature for 2 hours. After washing with T-PBS, a 0.2 μg/mL avidin peroxidase (Pierce/Thermo Fisher Scientific Inc.) solution was added thereto, and the plate was shaken at room temperature for 1 hour. After washing with T-PBS, color was developed by an o-phenylenediamine (Sigma-Aldrich Inc.) solution (the reaction was terminated by the addition of 4 mol/L sulfuric acid), and the absorbance was measured (490 nm, Reference: 595 nm). The IC50 value was calculated using XLfit 3.0 (ID Business Solutions Ltd.). RGDfV (Bachem AG) was measured in duplicate as a QC sample for each plate.

[2] = target: T2, Integrin αvβ5 (Homo sapiens, UniProt P06756+P18084); test: Integrin αvβ5 binding affinity test; conditions: inhibition of biotinylated vitronectin binding to immobilized αvβ5; read-out: IC50 value αvβ5
T2 construct: purchased Chemicon International, Inc
T2 sequence (P06756 31-889 limits assumed): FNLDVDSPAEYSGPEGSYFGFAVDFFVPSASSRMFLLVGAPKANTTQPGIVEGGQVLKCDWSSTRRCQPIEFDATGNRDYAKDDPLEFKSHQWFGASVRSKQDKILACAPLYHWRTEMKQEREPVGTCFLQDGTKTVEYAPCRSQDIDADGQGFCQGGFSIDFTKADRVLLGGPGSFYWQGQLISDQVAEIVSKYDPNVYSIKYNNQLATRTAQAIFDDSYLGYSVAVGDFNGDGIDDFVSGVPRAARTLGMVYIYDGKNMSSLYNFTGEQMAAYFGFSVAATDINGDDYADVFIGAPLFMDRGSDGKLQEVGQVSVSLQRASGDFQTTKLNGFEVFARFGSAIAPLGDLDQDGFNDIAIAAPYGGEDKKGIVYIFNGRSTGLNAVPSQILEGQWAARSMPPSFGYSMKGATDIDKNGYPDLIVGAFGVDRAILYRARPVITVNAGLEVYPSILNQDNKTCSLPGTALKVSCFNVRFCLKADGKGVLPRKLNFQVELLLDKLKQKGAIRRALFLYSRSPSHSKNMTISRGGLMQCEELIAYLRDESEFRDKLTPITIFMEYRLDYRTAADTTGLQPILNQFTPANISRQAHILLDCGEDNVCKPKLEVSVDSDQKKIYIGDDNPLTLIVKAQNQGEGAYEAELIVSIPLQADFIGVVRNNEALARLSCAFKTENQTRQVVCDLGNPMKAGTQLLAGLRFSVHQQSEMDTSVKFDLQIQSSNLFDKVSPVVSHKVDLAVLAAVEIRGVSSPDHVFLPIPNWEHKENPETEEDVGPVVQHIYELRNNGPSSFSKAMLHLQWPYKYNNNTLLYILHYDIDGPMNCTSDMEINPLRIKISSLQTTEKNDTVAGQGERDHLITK
T2 sequence (P06756 891-1048 partner limits assumed): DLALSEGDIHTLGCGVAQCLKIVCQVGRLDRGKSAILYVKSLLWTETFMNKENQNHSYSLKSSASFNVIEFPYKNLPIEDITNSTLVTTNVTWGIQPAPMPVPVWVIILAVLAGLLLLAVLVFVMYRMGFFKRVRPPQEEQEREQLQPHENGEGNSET
T2 sequence (P18084 24-799): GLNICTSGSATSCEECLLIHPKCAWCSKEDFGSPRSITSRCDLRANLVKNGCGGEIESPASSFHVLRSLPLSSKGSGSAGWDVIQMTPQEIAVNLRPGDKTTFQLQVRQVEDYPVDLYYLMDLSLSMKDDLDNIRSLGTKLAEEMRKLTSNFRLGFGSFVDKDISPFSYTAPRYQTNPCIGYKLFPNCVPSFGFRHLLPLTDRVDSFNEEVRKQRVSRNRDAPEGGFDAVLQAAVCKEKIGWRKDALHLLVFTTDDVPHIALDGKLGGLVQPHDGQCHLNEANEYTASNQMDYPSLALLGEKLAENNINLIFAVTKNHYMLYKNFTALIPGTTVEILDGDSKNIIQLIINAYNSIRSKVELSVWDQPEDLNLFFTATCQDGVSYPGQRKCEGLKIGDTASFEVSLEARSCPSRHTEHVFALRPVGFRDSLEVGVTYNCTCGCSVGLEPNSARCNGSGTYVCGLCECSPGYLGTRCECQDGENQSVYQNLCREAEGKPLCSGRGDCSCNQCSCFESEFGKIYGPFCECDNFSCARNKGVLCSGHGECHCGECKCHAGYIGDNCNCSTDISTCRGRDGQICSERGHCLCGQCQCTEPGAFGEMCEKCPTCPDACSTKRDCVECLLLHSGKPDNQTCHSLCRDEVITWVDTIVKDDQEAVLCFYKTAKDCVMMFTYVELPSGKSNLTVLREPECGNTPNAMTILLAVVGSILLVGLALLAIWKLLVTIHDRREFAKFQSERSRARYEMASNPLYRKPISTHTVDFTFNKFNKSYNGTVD
Experimental: as §1, with “αvβ5” for “αvβ3”, “PBST (10 mM Na2HPO4 pH 7.5, 150 mM NaCl, and 0.01%” for “T-PBS (PBS containing 0.05%”, “PBST,” for “T-PBS,”

T1 sequence (P06756 31-889 limits assumed): as the sequence (P06756 31-889 limits assumed) above
T1 sequence (P06756 891-1048 partner limits assumed): as the sequence (P06756 891-1048 partner limits assumed) above
T1 sequence (P05106 27-788): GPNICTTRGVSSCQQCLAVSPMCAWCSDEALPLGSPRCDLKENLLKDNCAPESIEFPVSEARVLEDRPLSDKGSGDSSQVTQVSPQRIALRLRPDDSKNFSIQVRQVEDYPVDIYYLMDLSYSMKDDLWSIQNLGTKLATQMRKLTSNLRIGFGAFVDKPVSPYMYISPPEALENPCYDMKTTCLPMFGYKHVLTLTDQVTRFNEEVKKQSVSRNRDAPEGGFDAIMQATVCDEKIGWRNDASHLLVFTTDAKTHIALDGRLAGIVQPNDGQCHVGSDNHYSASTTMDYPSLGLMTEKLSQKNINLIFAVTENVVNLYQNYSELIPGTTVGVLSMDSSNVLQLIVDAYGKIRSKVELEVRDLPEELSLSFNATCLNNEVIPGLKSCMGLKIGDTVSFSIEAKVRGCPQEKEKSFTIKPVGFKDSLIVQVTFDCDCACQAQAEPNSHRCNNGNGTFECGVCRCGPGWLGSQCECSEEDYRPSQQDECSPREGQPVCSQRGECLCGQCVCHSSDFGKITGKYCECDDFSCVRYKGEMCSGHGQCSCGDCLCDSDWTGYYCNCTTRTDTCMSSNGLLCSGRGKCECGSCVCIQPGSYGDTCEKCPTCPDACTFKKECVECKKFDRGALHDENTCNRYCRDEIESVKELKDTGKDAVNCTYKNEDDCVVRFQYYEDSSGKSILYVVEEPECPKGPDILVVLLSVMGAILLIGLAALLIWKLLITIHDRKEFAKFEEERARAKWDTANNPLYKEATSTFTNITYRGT

Row | SMILES | IC50 [1] | IC50 [2]
1 | Cc1cc(OCCCC(=O)NCCNC(=O)[C@H](CS(=O)(=O)O)NC(=O)[C@H](CS(=O)(=O)O)NC(=O)CN2CCN(CC(=O)O)CCN(CC(=O)O)CCN(CC(=O)O)CC2)cc(C)c1S(=O)(=O)N[C@@H](CNC(=O)c1ccc(CCc2ccc3c(n2)NCCC3)cc1)C(=O)O [Compound A8, 2,2′,2″-(10-((4R,7R)-16-(4-(N—((S)-1-carboxy-2-(4-(2-(5,6,7,8-tetrahydro-1,8-naphthyridin-2-yl)ethyl)benzamido)ethyl)sulfamoyl)-3,5-dimethylphenoxy)-2,5,8,13-tetraoxo-4,7-bis(sulfomethyl)-3,6,9,12-tetraazahexadecyl)-1,4,7,10-tetraazacyclododecane-1,4,7-triyl)triacetic acid] | < 1 nM | < 1 nM
2 | Cc1cc(OCCCC(=O)NCCNC(=O)[C@H](CS(=O)(=O)O)NC(=O)CN2CCN(CC(=O)O)CCN(CC(=O)O)CCN(CC(=O)O)CC2)cc(C)c1S(=O)(=O)N[C@@H](CNC(=O)c1ccc(CCc2ccc3c(n2)NCCC3)cc1)C(=O)O [Compound B2, 2,2′,2″-(10-(2-(((R)-1-((2-(4-(4-(N—((S)-1-carboxy-2-(4-(2-(5,6,7,8-tetrahydro-1,8-naphthyridin-2-yl)ethyl)benzamido)ethyl)sulfamoyl)-3,5-dimethylphenoxy)butanamido)ethyl)amino)-1-oxo-3-sulfopropan-2-yl)amino)-2-oxoethyl)-1,4,7,10-tetraazacyclododecane-1,4,7-triyl)triacetic acid] | < 1 nM | < 1 nM
3 | Cc1cc(OCCCC(=O)NCCNC(=O)COCCOCCNC(=O)CN2CCN(CC(=O)O)CCN(CC(=O)O)CCN(CC(=O)O)CC2)cc(C)c1S(=O)(=O)N[C@@H](CNC(=O)c1ccc(CCc2ccc3c(n2)NCCC3)cc1)C(=O)O [Compound D3, (S)-2,2′,2′-(10-(19-(4-(N-(1-carboxy-2-(4-(2-(5,6,7,8-tetrahydro-1,8-naphthyridin-2-yl)ethyl)benzamido)ethyl)sulfamoyl)-3,5-dimethylphenoxy)-2,11,16-trioxo-6,9-dioxa-3,12,15-triazanonadecyl)-1,4,7,10-tetraazacyclododecane-1,4,7-triyl)triacetic acid] | < 1 nM | < 1 nM
4 | Cc1cc(OCCCC(=O)NCCNC(=O)COCCOCCNC(=O)COCCOCCNC(=O)CN2CCN(CC(=O)O)CCN(CC(=O)O)CCN(CC(=O)O)CC2)cc(C)c1S(=O)(=O)N[C@@H](CNC(=O)c1ccc(CCc2ccc3c(n2)NCCC3)cc1)C(=O)O [Compound F3, (S)-2,2′,2″-(10-(28-(4-(N-(1-carboxy-2-(4-(2-(5,6,7,8-tetrahydro-1,8-naphthyridin-2-yl)ethyl)benzamido)ethyl)sulfamoyl)-3,5-dimethylphenoxy)-2,11,20,25-tetraoxo-6,9,15,18-tetraoxa-3,12,21,24-tetraazaoctacosyl)-1,4,7,10-tetraazacyclododecane-1,4,7-triyl)triacetic acid] | < 1 nM | < 1 nM
5 | Cc1cc(OCCCC(=O)NCCNC(=O)COCCOCCNC(=O)[C@H](CS(=O)(=O)O)NC(=O)CN2CCN(CC(=O)O)CCN(CC(=O)O)CCN(CC(=O)O)CC2)cc(C)c1S(=O)(=O)N[C@@H](CNC(=O)c1ccc(CCc2ccc3c(n2)NCCC3)cc1)C(=O)O [Compound G3, 2,2′,2″-(10-((R)-22-(4-(N—((S)-1-carboxy-2-(4-(2-(5,6,7,8-tetrahydro-1,8-naphthyridin-2-yl)ethyl)benzamido)ethyl)sulfamoyl)-3,5-dimethylphenoxy)-2,5,14,19-tetraoxo-4-(sulfomethyl)-9,12-dioxa-3,6,15,18-tetraazadocosyl)-1,4,7,10-tetraazacyclododecane-1,4,7-triyl)triacetic acid] | < 1 nM | < 1 nM
6 | Cc1cc(OCCCC(=O)NCCNC(=O)[C@H](CS(=O)(=O)O)NC(=O)CCC(NC(=O)CN2CCN(CC(=O)O)CCN(CC(=O)O)CCN(CC(=O)O)CC2)C(=O)N[C@@H](CS(=O)(=O)O)C(=O)NCCNC(=O)CCCOc2cc(C)c(S(=O)(=O)N[C@@H](CNC(=O)c3ccc(CCc4ccc5c(n4)NCCC5)cc3)C(=O)O)c(C)c2)cc(C)c1S(=O)(=O)N[C@@H](CNC(=O)c1ccc(CCc2ccc3c(n2)NCCC3)cc1)C(=O)O (stereo partly drawn) [Compound H9] | < 1 nM | < 1 nM
7 | O=C(O)CC(c1cncc(OCCCC(=O)NCCNC(=O)[C@H](CS(=O)(=O)O)NC(=O)[C@H](CS(=O)(=O)O)NC(=O)CN2CCN(CC(=O)O)CCN(CC(=O)O)CCN(CC(=O)O)CC2)c1)n1ccc2cc(OCCc3ccc4c(n3)NCCC4)ccc21 (stereo partly drawn) [Compound I21, 2,2′,2″-(10-((4R,7R)-16-((5-(2-carboxy-1-(5-(2-(5,6,7,8-tetrahydro-1,8-naphthyridin-2-yl)ethoxy)-1H-indol-1-yl)ethyl)pyridin-3-yl)oxy)-2,5,8,13-tetraoxo-4,7-bis(sulfomethyl)-3,6,9,12-tetraazahexadecyl)-1,4,7,10-tetraazacyclododecane-1,4,7-triyl)triacetic acid] | < 1 nM | < 1 nM
8 | O=C(O)CC(c1cncc(OCCCC(=O)NCCNC(=O)[C@H](CS(=O)(=O)O)NC(=O)[C@H](CS(=O)(=O)O)NC(=O)CN2CCN(CC(=O)O)CCN(CC(=O)O)CCN(CC(=O)O)CC2)c1)n1ccc2c(CCc3ccc4c(n3)NCCC4)cccc21 (stereo partly drawn) [Compound J9, 2,2′,2″-(10-((4R,7R)-16-((5-(2-carboxy-1-(4-(2-(5,6,7,8-tetrahydro-1,8-naphthyridin-2-yl)ethyl)-1H-indol-1-yl)ethyl)pyridin-3-yl)oxy)-2,5,8,13-tetraoxo-4,7-bis(sulfomethyl)-3,6,9,12-tetraazahexadecyl)-1,4,7,10-tetraazacyclododecane-1,4,7-triyl)triacetic acid] | < 1 nM | 1 to 10 nM
9 | Cc1cc(OCCCC(=O)NCCNC(=O)[C@H](CS(=O)(=O)O)NC(=O)CN2CCN(CC(=O)O)CCN(CC(=O)O)CCN(CC(=O)O)CC2)cc(C)c1S(=O)(=O)N[C@H](CNC(=O)CCCCc1ccc2c(n1)NCCC2)C(=O)O [Compound K8, 2,2′,2′-(10-(2-(((R)-1-((2-(4-(4-(N—((R)-1-carboxy-2-(5-(5,6,7,8-tetrahydro-1,8-naphthyridin-2-yl)pentanamido)ethyl)sulfamoyl)-3,5-dimethylphenoxy)butanamido)ethyl)amino)-1-oxo-3-sulfopropan-2-yl)amino)-2-oxoethyl)-1,4,7,10-tetraazacyclododecane-1,4,7-triyl)triacetic acid] | < 1 nM | 1 to 10 nM
10 | Cc1cc(OCCCC(=O)NCCNC(=O)[C@H](CS(=O)(=O)O)NC(=O)CC[C@H](NC(=O)CN2CCN(CC(=O)O)CCN(CC(=O)O)CCN(CC(=O)O)CC2)C(=O)N[C@@H](CS(=O)(=O)O)C(=O)NCCNC(=O)CCCOc2cc(C)c(S(=O)(=O)N[C@@H](CNC(=O)c3ccc(CCc4cccc(N)n4)cc3)C(=O)O)c(C)c2)cc(C)c1S(=O)(=O)N[C@@H](CNC(=O)c1ccc(CCc2cccc(N)n2)cc1)C(=O)O [Compound L10] | < 1 nM | < 1 nM
11 | Cc1cc(OCCCC(=O)NCCNC(=O)[C@H](CS(=O)(=O)O)NC(=O)CN2CCN(CC(=O)O)CCN(CC(=O)O)CCN(CC(=O)O)CC2)cc(C)c1S(=O)(=O)N[C@@H](CNC(=O)c1ccc(CCc2cccc(N)n2)cc1)C(=O)O [Compound M2, 2,2′,2″-(10-(2-(((R)-1-((2-(4-(4-(N—((S)-2-(4-(2-(6-aminopyridin-2-yl)ethyl)benzamido)-1-carboxyethyl)sulfamoyl)-3,5-dimethylphenoxy)butanamido)ethyl)amino)-1-oxo-3-sulfopropan-2-yl)amino)-2-oxoethyl)-1,4,7,10-tetraazacyclododecane-1,4,7-triyl)triacetic acid] | < 1 nM | < 1 nM
12 | Cc1cc(OCCCC(=O)NCCNC(=O)[C@H](CS(=O)(=O)O)NC(=O)[C@H](CS(=O)(=O)O)NC(=O)CN2CCN(CC(=O)O)CCN(CC(=O)O)CCN(CC(=O)O)CC2)cc(C)c1S(=O)(=O)N[C@@H](CNC(=O)c1ccc(CCc2cccc(N)n2)cc1)C(=O)O [Compound N3, 2,2′,2″-(10-((4R,7R)-16-(4-(N—((S)-2-(4-(2-(6-aminopyridin-2-yl)ethyl)benzamido)-1-carboxyethyl)sulfamoyl)-3,5-dimethylphenoxy)-2,5,8,13-tetraoxo-4,7-bis(sulfomethyl)-3,6,9,12-tetraazahexadecyl)-1,4,7,10-tetraazacyclododecane-1,4,7-triyl)triacetic acid] | < 1 nM | < 1 nM
